For 36 molecules, inhibition results are on record in PubChem BioAssay AID652224 (The Scripps Research Institute Molecular Screening Center, 2013).

The structures appear in SMILES notation. Activity calls are given as the source filed them.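 How the source made its calls: active means at least 70% inhibition of the phosphatase PP5 at 50 µM; inactive means inhibition below 70% at 50 µM.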

This test addresses Serine/threonine-protein phosphatase 5 (Homo sapiens) (UniProt P53041). As to the kind of experiment: inhibition of human PP5 catalytic domain – biochemical, fluorescence, OMFP substrate, powder samples, selectivity assay for PP1 inhibitor project, late-stage follow-up (AID 652224). To be noted: purified PP5c, OMFP dephosphorylation fluorescence; at 50 µM; hits give high values.

Chain of Serine/threonine-protein phosphatase 5 (Homo sapiens) (P53041 whole entry, looked up, the tested form may be a part): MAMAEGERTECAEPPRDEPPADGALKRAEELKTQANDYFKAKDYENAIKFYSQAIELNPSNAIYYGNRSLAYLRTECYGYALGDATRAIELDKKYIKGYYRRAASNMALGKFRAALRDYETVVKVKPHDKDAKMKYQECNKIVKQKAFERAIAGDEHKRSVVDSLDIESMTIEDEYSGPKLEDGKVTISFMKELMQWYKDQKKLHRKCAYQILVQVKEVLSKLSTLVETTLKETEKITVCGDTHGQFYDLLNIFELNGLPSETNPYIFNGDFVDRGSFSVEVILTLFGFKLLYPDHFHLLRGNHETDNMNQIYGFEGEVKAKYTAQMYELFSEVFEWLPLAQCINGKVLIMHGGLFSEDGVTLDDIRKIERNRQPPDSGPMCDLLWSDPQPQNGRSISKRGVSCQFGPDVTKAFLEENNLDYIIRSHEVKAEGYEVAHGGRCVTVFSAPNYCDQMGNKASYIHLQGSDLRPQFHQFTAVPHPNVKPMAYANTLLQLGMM

With `CN1CCN(C(c2ccncc2)c2cc(Cl)c3cccnc3c2O)CC1` (stereo unspecified), the inhibition (usually the relative decrease from the control value, in per cent) is 9.09% (inactive). Regarding `Oc1c(Cc2ccccn2)ccc2cccnc12`, the inhibition was 27% (inactive).

With `CN1CCN(C(c2ccc3cccnc3c2O)c2ncccc2C(F)(F)F)CC1` (stereo unspecified), the inhibition was 29.4% (inactive). `CN1CCN(C(c2cccs2)c2cc(Cl)c3cccnc3c2O)CC1` (stereo unspecified): the inhibition was 24.7% (inactive). The figure for `Oc1c(C(c2ccccn2)N2CCOCC2)cc(Cl)c2cccnc12` (stereo unspecified) is 72.5%; for `CN1CCN(C(c2cccnc2)c2cc(Cl)c3cccnc3c2O)CC1` (stereo unspecified) it is 9.84% (inactive).

Regarding `CN1CCN(Cc2cc(Cl)c3cccnc3c2O)CC1`, the inhibition was 20.1% (inactive). As for `Oc1c(CN2CCN(c3ccccc3)CC2)cc(Cl)c2cccnc12`, the figure is 21.3% (inactive); as for `Cc1ccc2ccc(C(c3ccccn3)N3CCN(C)CC3)c(O)c2n1` (stereo unspecified), 24.3% (inactive); as for `Cc1ccnc(C(c2ccc3cccnc3c2O)N2CCN(C)CC2)c1` (stereo unspecified), 54.8% (inactive). The figure for `Cc1ccc(C(c2ccc3cccnc3c2O)N2CCN(C)CC2)nc1` (stereo unspecified) is 66.2% (inactive); for `CN1CCN(C(c2ccccn2)c2ccc3cccnc3c2O)CC1` (stereo unspecified) it is 49.2% (inactive).

For the molecule `Cc1cccc(C(c2ccc3cccnc3c2O)N2CCN(C)CC2)n1` (stereo unspecified), the inhibition was -2.26% (inactive). The figure for `CCOC(c1ccccn1)c1cc(Cl)c2cccnc2c1O` (stereo unspecified) is 21.5% (inactive). As for `Oc1c(C(c2ccccn2)N2CCCC2)ccc2cccnc12` (stereo unspecified), the figure is 45.2% (inactive); as for `CN1CCN(C(c2ccccc2)c2cc(Cl)c3cccnc3c2O)CC1` (stereo unspecified), 15.5% (inactive). The figure for `COc1cccc(C(c2ccc3cccnc3c2O)N2CCN(C)CC2)n1` (stereo unspecified) is -1.09% (inactive); for `CN1CCN(C(c2nccs2)c2cc(Cl)c3cccnc3c2O)CC1` (stereo unspecified) it is 35% (inactive); for `Oc1c(CN2CCN(c3ccccn3)CC2)cc(Cl)c2cccnc12` it is 32.4% (inactive).

Regarding `Cc1cccnc1C(c1ccc2cccnc2c1O)N1CCN(C)CC1` (stereo unspecified), the inhibition was 66.1% (inactive).

On to `COCOc1c(C(c2ccccn2)N2CCN(C)CC2)ccc2cccnc12` (stereo unspecified), for which the inhibition is -6.11% (inactive). As for `CC(C)(C)OC(=O)N1CCN(C(c2ccccn2)c2cc(Cl)c3cccnc3c2O)CC1` (stereo unspecified), the figure is 37.1% (inactive). As for `CCN1CCN(C(c2ccccn2)c2cc(Cl)c3cccnc3c2O)CC1` (stereo unspecified), the figure is 67.9% (inactive); as for `Oc1c(C(c2ccccn2)N2CCC(Cc3ccccc3)CC2)cc(Cl)c2cccnc12` (stereo unspecified), 24.6% (inactive). Turning to `COc1ccc(C(c2ccc3cccnc3c2O)N2CCN(C)CC2)nc1` (stereo unspecified), the inhibition is 48.5% (inactive). Turning to `COc1ccnc(C(c2ccc3cccnc3c2O)N2CCN(C)CC2)c1` (stereo unspecified), the inhibition was 58.8% (inactive).

On to `CN1CCC(NC(c2ccccn2)c2ccc3cccnc3c2O)CC1` (stereo unspecified), for which the inhibition was 9.57% (inactive). As for `CC1CCN(C(c2ccccn2)c2cc(Cl)c3cccnc3c2O)CC1` (stereo unspecified), the figure is 68.5% (inactive). As for `CN1CCN(C(c2ccc(C(F)(F)F)cn2)c2ccc3cccnc3c2O)CC1` (stereo unspecified), the figure is 61.9% (inactive); as for `CN1CCN(C(c2ncccn2)c2ccc3cccnc3c2O)CC1` (stereo unspecified), -0.77% (inactive). As for `Oc1c(C(NC2CCCCC2)c2ccccn2)ccc2cccnc12` (stereo unspecified), the figure is 36.3% (inactive); as for `Oc1c(C(c2ccccn2)N2CCNCC2)cc(Cl)c2cccnc12` (stereo unspecified), 14.4% (inactive). In the case of `CN1CCN(C(c2ccccn2)c2cc(Cl)c3ccccc3c2O)CC1` (stereo unspecified), the inhibition was 12.1% (inactive). The figure for `CN1CCN(C(c2ccccn2)c2cc(Cl)c3cccnc3c2O)CC1` (stereo unspecified) is 75.8%; for `CN1CCN(C(c2ccccn2)c2cc(Cl)ccc2O)CC1` (stereo unspecified) it is 4.27% (inactive); for `Oc1c(C(c2ccccn2)N2CCN(c3ccccc3F)CC2)cc(Cl)c2cccnc12` (stereo unspecified) it is 27% (inactive).
